A short description of data set [1]: Freeze-thaw stability in spiked pooled human plasma. The data set is classed as physicochemical.
Data set [2] can be described thus: Autosampler stability of ready for injection samples. The data set is classed as physicochemical, human.

Structures are written as SMILES.

`Cc1[nH]c2ccccc2c1CCNCc1ccc(/C=C/C(=O)NO)cc1` [Panobinostat]: the “Freeze-Thaw Accuracy [%]” value was determined as 107.5% in data set [1] (validation standard 2xLLOV), 104.3% in data set [1] (validation standard LLOV), 98.8% in data set [1] (validation standard MOV) and 102.3% in data set [1] (validation standard ULOV). The “Autosampler (24h, 4°C) Accuracy [%]” value came to 100.3% in data set [2] (validation standard 2xLLOV), 83.8% in data set [2] (validation standard LLOV), 102.4% in data set [2] (validation standard MOV) and 95.4% in data set [2] (validation standard ULOV). Also, the “Autosampler (72h, 4°C) Accuracy [%]” value is reported as 95.4% in data set [2] (validation standard 2xLLOV), 73.7% in data set [2] (validation standard LLOV), 101.0% in data set [2] (validation standard MOV) and 101.1% in data set [2] (validation standard ULOV).

On to `Cc1ccc(Nc2nccc(N(C)c3ccc4c(C)n(C)nc4c3)n2)cc1S(N)(=O)=O` [Pazopanib], for which the “Freeze-Thaw Accuracy [%]” value in data set [1] (validation standard 2xLLOV) was 103.5%; in data set [1] (validation standard LLOV), 102.7%; in data set [1] (validation standard MOV) it was 103.9%; in data set [1] (validation standard ULOV), 100.5%. In addition, the “Autosampler (24h, 4°C) Accuracy [%]” value in data set [2] (validation standard 2xLLOV) is 103.7%; in data set [2] (validation standard LLOV), 101.3%; in data set [2] (validation standard MOV), 101.7%; in data set [2] (validation standard ULOV), 99.8%. Besides, the “Autosampler (72h, 4°C) Accuracy [%]” value in data set [2] (validation standard 2xLLOV) was determined as 99.4%; in data set [2] (validation standard LLOV), 99.0%; in data set [2] (validation standard MOV), 97.9%; in data set [2] (validation standard ULOV) it was 99.0%.

Turning to `Nc1cccc2c1C(=O)N(C1CCC(=O)NC1=O)C2=O` (stereo not shown) [Pomalidomide], the “Freeze-Thaw Accuracy [%]” value came to 90.9% in data set [1] (validation standard 2xLLOV), 74.4% in data set [1] (validation standard LLOV), 90.1% in data set [1] (validation standard MOV) and 92.4% in data set [1] (validation standard ULOV). The “Autosampler (24h, 4°C) Accuracy [%]” value is listed as 104.1% in data set [2] (validation standard 2xLLOV), 104.9% in data set [2] (validation standard LLOV), 104.5% in data set [2] (validation standard MOV) and 100.5% in data set [2] (validation standard ULOV). In addition, the “Autosampler (72h, 4°C) Accuracy [%]” value in data set [2] (validation standard 2xLLOV) came out at 103.5%; in data set [2] (validation standard LLOV), 96.5%; in data set [2] (validation standard MOV), 97.7%; in data set [2] (validation standard ULOV), 97.9%.

As for `CNC(=O)c1cc(Oc2ccc(NC(=O)Nc3ccc(Cl)c(C(F)(F)F)c3)c(F)c2)ccn1` [Regorafenib], the “Freeze-Thaw Accuracy [%]” value is listed as 97.1% in data set [1] (validation standard 2xLLOV), 101.6% in data set [1] (validation standard LLOV), 96.2% in data set [1] (validation standard MOV) and 98.6% in data set [1] (validation standard ULOV). The “Autosampler (24h, 4°C) Accuracy [%]” value in data set [2] (validation standard 2xLLOV) was 101.6%; in data set [2] (validation standard LLOV), 107.3%; in data set [2] (validation standard MOV), 101.4%; in data set [2] (validation standard ULOV) it was 104.2%. Moreover, the “Autosampler (72h, 4°C) Accuracy [%]” value in data set [2] (validation standard 2xLLOV) is 101.1%; in data set [2] (validation standard LLOV), 102.1%; in data set [2] (validation standard MOV), 104.4%; in data set [2] (validation standard ULOV) it was 99.3%.

As to `CN(C)C(=O)c1cc2cnc(Nc3ccc(N4CCNCC4)cn3)nc2n1C1CCCC1` [Ribociclib], the figures for the “Freeze-Thaw Accuracy [%]” value in data set [1] (validation standard 2xLLOV), in data set [1] (validation standard LLOV) and in data set [1] (validation standard ULOV) were 103.9%, 86.3% and 92.4%, respectively. The “Autosampler (24h, 4°C) Accuracy [%]” value in data set [2] (validation standard 2xLLOV) was 103.0%; in data set [2] (validation standard LLOV), 84.0%; in data set [2] (validation standard MOV), 104.1%; in data set [2] (validation standard ULOV), 89.8%.

Take `N#CC[C@H](C1CCCC1)n1cc(-c2ncnc3[nH]ccc23)cn1` [Ruxolitinib]: the “Freeze-Thaw Accuracy [%]” value in data set [1] (validation standard 2xLLOV) turned out to be 94.7%; in data set [1] (validation standard LLOV), 92.5%; in data set [1] (validation standard MOV), 96.2%; in data set [1] (validation standard ULOV), 97.2%. Moreover, the “Autosampler (24h, 4°C) Accuracy [%]” value in data set [2] (validation standard 2xLLOV) is reported as 100.5%; in data set [2] (validation standard LLOV), 93.9%; in data set [2] (validation standard MOV) it was 102.4%; in data set [2] (validation standard ULOV) it was 100.1%. The “Autosampler (72h, 4°C) Accuracy [%]” value in data set [2] (validation standard 2xLLOV) was 97.7%; in data set [2] (validation standard LLOV), 94.4%; in data set [2] (validation standard MOV), 99.7%; in data set [2] (validation standard ULOV) it was 99.7%.

Take `Cc1c(C(=O)Nc2ccc(N3C[C@@H](C)O[C@@H](C)C3)nc2)cccc1-c1ccc(OC(F)(F)F)cc1` [Sonidegib]: the “Freeze-Thaw Accuracy [%]” value came to 97.9% in data set [1] (validation standard 2xLLOV), 103.7% in data set [1] (validation standard LLOV), 96.5% in data set [1] (validation standard MOV) and 99.0% in data set [1] (validation standard ULOV). Besides, the “Autosampler (24h, 4°C) Accuracy [%]” value in data set [2] (validation standard 2xLLOV) is on record as 101.5%; in data set [2] (validation standard LLOV) it was 109.3%; in data set [2] (validation standard MOV), 99.4%; in data set [2] (validation standard ULOV), 101.3%. Also, the “Autosampler (72h, 4°C) Accuracy [%]” value in data set [2] (validation standard 2xLLOV) is listed as 101.9%; in data set [2] (validation standard LLOV) it was 100.0%; in data set [2] (validation standard MOV) it was 101.1%; in data set [2] (validation standard ULOV), 98.1%.

For the compound `CNC(=O)c1cc(Oc2ccc(NC(=O)Nc3ccc(Cl)c(C(F)(F)F)c3)cc2)ccn1` [Sorafenib], the “Freeze-Thaw Accuracy [%]” value in data set [1] (validation standard 2xLLOV) is reported as 97.6%; in data set [1] (validation standard LLOV) it was 103.3%; in data set [1] (validation standard MOV), 96.9%; in data set [1] (validation standard ULOV), 98.7%. Also, the “Autosampler (24h, 4°C) Accuracy [%]” value came out at 103.1% in data set [2] (validation standard 2xLLOV), 112.0% in data set [2] (validation standard LLOV), 101.0% in data set [2] (validation standard MOV) and 101.7% in data set [2] (validation standard ULOV). Besides, the “Autosampler (72h, 4°C) Accuracy [%]” value was 104.1% in data set [2] (validation standard 2xLLOV), 104.9% in data set [2] (validation standard LLOV), 103.5% in data set [2] (validation standard MOV) and 98.3% in data set [2] (validation standard ULOV).

With `CCN(CC)CCNC(=O)c1c(C)[nH]c(/C=C2\C(=O)Nc3ccc(F)cc32)c1C` [Sunitinib], the “Freeze-Thaw Accuracy [%]” value in data set [1] (validation standard 2xLLOV) worked out at 102.8%; in data set [1] (validation standard LLOV), 117.0%; in data set [1] (validation standard MOV), 99.1%; in data set [1] (validation standard ULOV), 100.3%. Besides, the “Autosampler (24h, 4°C) Accuracy [%]” value came to 113.8% in data set [2] (validation standard 2xLLOV), 113.8% in data set [2] (validation standard LLOV), 111.8% in data set [2] (validation standard MOV) and 113.4% in data set [2] (validation standard ULOV). For the same compound, the “Autosampler (72h, 4°C) Accuracy [%]” value came to 111.0% in data set [2] (validation standard 2xLLOV), 119.4% in data set [2] (validation standard LLOV), 114.3% in data set [2] (validation standard MOV) and 119.5% in data set [2] (validation standard ULOV).

Consider `CCCS(=O)(=O)Nc1ccc(F)c(C(=O)c2c[nH]c3ncc(-c4ccc(Cl)cc4)cc23)c1F` [Vemurafenib], for which the “Freeze-Thaw Accuracy [%]” value in data set [1] (validation standard 2xLLOV) was 98.2%; in data set [1] (validation standard LLOV), 101.9%; in data set [1] (validation standard MOV), 97.5%; in data set [1] (validation standard ULOV), 99.2%. Further, the “Autosampler (24h, 4°C) Accuracy [%]” value in data set [2] (validation standard 2xLLOV) came to 103.5%; in data set [2] (validation standard LLOV) it was 112.7%; in data set [2] (validation standard MOV), 99.5%; in data set [2] (validation standard ULOV), 104.1%. Moreover, the “Autosampler (72h, 4°C) Accuracy [%]” value amounted to 102.3% in data set [2] (validation standard 2xLLOV), 109.4% in data set [2] (validation standard LLOV), 101.8% in data set [2] (validation standard MOV) and 99.4% in data set [2] (validation standard ULOV).

Turning to `CCC1=C[C@@H]2CN(C1)Cc1c([nH]c3ccccc13)[C@@](C(=O)OC)(c1cc3c(cc1OC)N(C)[C@H]1[C@@](O)(C(=O)OC)[C@H](OC(C)=O)[C@]4(CC)C=CCN5CC[C@]31[C@@H]54)C2` [Vinorelbine], the “Freeze-Thaw Accuracy [%]” value is recorded as 105.8% in data set [1] (validation standard 2xLLOV), 120.0% in data set [1] (validation standard LLOV), 95.7% in data set [1] (validation standard MOV) and 96.7% in data set [1] (validation standard ULOV). In addition, the “Autosampler (24h, 4°C) Accuracy [%]” value in data set [2] (validation standard 2xLLOV) came out at 89.9%; in data set [2] (validation standard LLOV) it was 65.0%; in data set [2] (validation standard MOV) it was 97.7%; in data set [2] (validation standard ULOV) it was 102.4%. Moreover, the “Autosampler (72h, 4°C) Accuracy [%]” value in data set [2] (validation standard 2xLLOV) stood at 87.3%; in data set [2] (validation standard LLOV) it was 67.9%; in data set [2] (validation standard MOV) it was 99.6%; in data set [2] (validation standard ULOV), 99.5%.

Take `CS(=O)(=O)c1ccc(C(=O)Nc2ccc(Cl)c(-c3ccccn3)c2)c(Cl)c1` [Vismodegib]: the “Freeze-Thaw Accuracy [%]” value in data set [1] (validation standard 2xLLOV) worked out at 103.4%; in data set [1] (validation standard LLOV), 77.6%; in data set [1] (validation standard MOV), 103.2%; in data set [1] (validation standard ULOV) it was 94.1%. Further, the “Autosampler (24h, 4°C) Accuracy [%]” value stood at 105.1% in data set [2] (validation standard 2xLLOV), 84.9% in data set [2] (validation standard LLOV), 108.4% in data set [2] (validation standard MOV) and 96.6% in data set [2] (validation standard ULOV). In addition, the “Autosampler (72h, 4°C) Accuracy [%]” value was 109.2% in data set [2] (validation standard 2xLLOV), 85.6% in data set [2] (validation standard LLOV), 107.5% in data set [2] (validation standard MOV) and 99.7% in data set [2] (validation standard ULOV).
